Measured values: ChEMBL document CHEMBL1147897, “Synthesis of enantiomerically pure milnacipran analogs and inhibition of dopamine, serotonin, and norepinephrine transporters” (Bioorg Med Chem Lett, 2007)
Where “and” joins values, the source holds several entries; their conditions need not be identical. Equal values may be shown once.

What was measured:
Assay type in all cases: functional, subcellular, Brain
[1] = target: Sodium-dependent serotonin transporter (Rattus norvegicus, UniProt P31652); assay: Inhibition of [3H]5-HT uptake at 5HT transporter in Wistar rat synaptosomes
Sequence of Sodium-dependent serotonin transporter (P31652 whole entry): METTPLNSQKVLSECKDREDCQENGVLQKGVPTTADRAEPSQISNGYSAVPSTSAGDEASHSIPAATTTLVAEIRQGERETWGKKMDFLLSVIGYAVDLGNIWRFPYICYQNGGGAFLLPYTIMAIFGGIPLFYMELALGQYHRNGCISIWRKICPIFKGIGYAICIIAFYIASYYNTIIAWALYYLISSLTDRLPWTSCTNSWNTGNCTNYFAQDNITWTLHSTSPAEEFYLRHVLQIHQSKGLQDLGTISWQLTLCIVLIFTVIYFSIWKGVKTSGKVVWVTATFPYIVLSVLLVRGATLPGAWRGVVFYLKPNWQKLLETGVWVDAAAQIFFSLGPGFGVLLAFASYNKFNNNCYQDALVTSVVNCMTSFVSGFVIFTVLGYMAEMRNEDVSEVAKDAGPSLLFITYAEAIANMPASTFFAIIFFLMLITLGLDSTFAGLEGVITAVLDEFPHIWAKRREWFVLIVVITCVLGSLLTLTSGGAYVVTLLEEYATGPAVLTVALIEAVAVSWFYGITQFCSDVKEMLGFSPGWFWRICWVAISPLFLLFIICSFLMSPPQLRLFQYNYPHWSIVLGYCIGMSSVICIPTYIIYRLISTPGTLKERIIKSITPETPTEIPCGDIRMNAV

[2] = target: Norepinephrine transporter (Rattus norvegicus, UniProt Q9WTR4); assay: Inhibition of [3H]5-HT uptake at NE transporter in Wistar rat synaptosomes
Sequence of Norepinephrine transporter (Q9WTR4 whole entry): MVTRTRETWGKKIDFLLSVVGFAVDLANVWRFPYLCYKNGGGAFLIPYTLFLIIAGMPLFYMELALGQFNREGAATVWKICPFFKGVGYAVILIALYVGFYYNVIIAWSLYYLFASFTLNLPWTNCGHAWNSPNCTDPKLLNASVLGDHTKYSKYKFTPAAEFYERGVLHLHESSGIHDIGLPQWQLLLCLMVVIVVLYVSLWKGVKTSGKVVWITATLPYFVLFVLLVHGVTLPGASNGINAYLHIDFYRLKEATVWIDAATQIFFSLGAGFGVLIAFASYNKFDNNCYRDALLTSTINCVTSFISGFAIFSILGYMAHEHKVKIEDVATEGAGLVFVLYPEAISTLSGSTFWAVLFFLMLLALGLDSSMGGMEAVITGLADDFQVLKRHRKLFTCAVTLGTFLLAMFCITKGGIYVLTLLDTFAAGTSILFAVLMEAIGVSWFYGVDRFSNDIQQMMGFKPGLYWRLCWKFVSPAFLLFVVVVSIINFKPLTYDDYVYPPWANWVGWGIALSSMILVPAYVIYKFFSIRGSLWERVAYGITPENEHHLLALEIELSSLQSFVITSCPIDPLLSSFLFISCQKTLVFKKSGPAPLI

[3] = target: Sodium-dependent dopamine transporter (Rattus norvegicus, UniProt P23977); assay: Inhibition of [3H]5-HT uptake at DA transporter in Wistar rat synaptosomes
Sequence of Sodium-dependent dopamine transporter (P23977 whole entry): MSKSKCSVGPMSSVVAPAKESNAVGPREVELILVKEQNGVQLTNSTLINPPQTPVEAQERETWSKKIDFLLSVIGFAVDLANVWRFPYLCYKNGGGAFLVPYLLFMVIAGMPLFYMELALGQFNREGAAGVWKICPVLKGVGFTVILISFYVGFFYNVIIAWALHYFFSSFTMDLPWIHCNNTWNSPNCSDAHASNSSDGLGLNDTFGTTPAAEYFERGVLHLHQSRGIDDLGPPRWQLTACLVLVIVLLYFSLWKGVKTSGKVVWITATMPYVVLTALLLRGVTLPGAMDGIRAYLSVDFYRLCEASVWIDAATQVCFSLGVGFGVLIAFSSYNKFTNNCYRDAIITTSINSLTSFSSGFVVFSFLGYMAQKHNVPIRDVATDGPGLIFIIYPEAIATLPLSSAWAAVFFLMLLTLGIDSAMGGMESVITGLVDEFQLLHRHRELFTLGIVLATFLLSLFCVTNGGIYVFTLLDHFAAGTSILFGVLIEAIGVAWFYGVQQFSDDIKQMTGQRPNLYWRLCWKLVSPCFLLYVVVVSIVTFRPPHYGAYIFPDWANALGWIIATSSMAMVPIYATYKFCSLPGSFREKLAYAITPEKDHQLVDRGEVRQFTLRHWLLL

Structure (SMILES)	IC50 [1]	IC50 [2]	IC50 [3]
CCN(CC)C(=O)[C@]1(c2ccc3ccccc3c2)C[C@@H]1CN	0.018 µM	0.005 µM	0.14 µM
CCN(CC)C(=O)[C@]1(c2ccsc2)C[C@@H]1CN	0.25 µM	0.41 µM	–
CCN(CC)C(=O)[C@@]1(c2ccsc2)C[C@H]1CN	0.19 µM	0.019 µM	10 µM
CCN(CC)C(=O)[C@]1(c2cccc(Cl)c2)C[C@@H]1CN	0.17 µM	0.038 µM	–
CCN(CC)C(=O)[C@@]1(c2ccc(OC)cc2)C[C@H]1CN	0.51 µM	0.035 µM	–
CCN(CC)C(=O)[C@@]1(c2cccc3ccccc23)C[C@H]1CN	7.1 µM	0.37 µM	10 µM
CCN(CC)C(=O)[C@@]1(c2ccc(F)cc2)C[C@H]1CN	0.21 µM	0.063 µM	–
CCN(CC)C(=O)[C@]1(c2ccc(Cl)cc2)C[C@@H]1CN	0.19 µM	–	3.7 µM
CCN(CC)C(=O)[C@]1(c2ccc(Cl)c(Cl)c2)C[C@@H]1CN	0.084 µM	0.01 µM	0.54 µM
CCN(CC)C(=O)[C@]1(c2cccc3ccccc23)C[C@@H]1CN	1.2 µM	0.2 µM	5.3 µM
CCN(CC)C(=O)[C@]1(c2ccc(OC)cc2)C[C@@H]1CN	0.23 µM	0.14 µM	–
CCN(CC)C(=O)[C@@]1(c2ccc(Cl)cc2)C[C@H]1CN	0.79 µM	–	–
CCN(CC)C(=O)[C@]1(c2ccc(F)cc2)C[C@@H]1CN	0.32 µM	0.5 µM	10 µM
CCN(CC)C(=O)[C@@]1(c2cccc(Cl)c2)C[C@H]1CN	0.086 µM	0.033 µM	9 µM
CCN(CC)C(=O)[C@@]1(c2ccc3ccccc3c2)C[C@H]1CN	0.13 µM	0.029 µM	1.4 µM
CCN(CC)C(=O)[C@@]1(c2ccc(Cl)c(Cl)c2)C[C@H]1CN	0.44 µM	0.026 µM	1.7 µM
CCN(CC)C(=O)[C@]1(c2cccs2)C[C@@H]1CN	0.25 µM and 0.52 µM	–	–
